Laboratory results reported in ChEMBL document CHEMBL1144802, “Cytotoxic xanthones from Psorospermum molluscum from the Madagascar rain forest” (J Nat Prod, 2008).

How the values were obtained:
[1] = tested on: SK-BR-3; experiment: Cytotoxicity against human SKBR3 cells; format: functional, cell-based
[2] = tested on: A2780; experiment: Cytotoxicity against human A2780 cells; format: functional, cell-based
[3] = tested on: HCT-116; experiment: Cytotoxicity against human HCT116 cells; format: functional, cell-based
[4] = tested on: ABAE; experiment: Cytotoxicity against bovine ABAE cells; format: functional, cell-based, Bos taurus

SMILES: O=c1c2c(O)cccc2oc2ccc3c(c12)CC(C(O)(CO)CCl)O3 (configuration not stated) [PSOROXANTHIN CHLOROHYDRIN]
- IC50 [1]: 2000 nM
- IC50 [2]: 42 nM
- IC50 [3]: 68 nM
- IC50 [4]: 4 nM

SMILES: O=c1c2c(O)cccc2oc2ccc3c(c12)CC(C1(CO)CO1)O3 (configuration not stated) [PSOROXANTHIN]
- IC50 [2]: 330 nM
- IC50 [3]: 1000 nM
- IC50 [4]: 102 nM
